In patent US7476511B2, “Method of detecting and analyzing paclitaxel-mimetic compounds” (priority 2001, dated 2009):
Like-named read-outs stand apart in the source and are kept apart here.

Key:
[1] = system: paclitaxel binding site of microtubules; assay: Binding of Flutax-2 to cross-linked microtubules by fluorescence anisotropy; set-up: species or system bovine
Method: The intensity of fluorescence of Flutax-2 changes very little with the binding to microtubules. There is a small change in the excitation maximum from 494 nm to 495 nm (isosbestic point at 500 nm ) and a blue shift in emission from 523 nm to 520 nm (not shown here; isosbestic point at 525 nm; Diaz, J. F. et al.). […] The excitation anisotropy spectrum of a 50 nM solution of microtubule sites/Flutax-2 was compared with the spectrum of a similar solution in which the binding sites were blocked by an excess of paclitaxel and of free Flutax-2. […] The anisotropy values determined for the 495 nm band (emission 520 nm; GAB buffer containing glycerol, 25° C.) were: free Flutax-2 (50 nm ), rmin=0.055; in the presence of microtubules blocked with paclitaxel, r=0.060; Flutax-2 specifically bound to the microtubules, rmax=0.29 (the last was determined by valuation of 50 nm Flutax-2 with growing concentrations of microtubules). These changes are consistent with a strong immobilisation of the fluorophore by the binding. […]
Tubulin from bovine brain was purified and stored, and its concentration was measured as has been described (Andreu, J. M. et al.). […]
Fluorescence spectra were obtained corrected with a Fluorolog-3-221 photon count instrument (Jobin Yvon-Spex, Longlumean, France), with an emission bandwidth of 5 nm and excitation of […] at 25° C. […] The multiple measurements of anisotropy were made with a PolarStar microplate reader (BMG Labtechnologies, Offenburg, Germany) at 25° C. The solutions were excited with 200 pulses of vertically polarised light (band-pass filter 485-P, 480-492 nm ) and the emission was simultaneously analysed with vertical and horizontal polarisation filters (band-pass 520-P, 515-550 nm ). […] The values of well blanks with microtubules and without Flutex-2 were subtracted from the values of fluorescence intensity (the blanks typically represented less than 4% of the measurement). […]

[2] = system: paclitaxel binding site of microtubules; assay: Competition test: displacement of Flutax-2 from microtubules, fluorescence anisotropy in microplate; set-up: species or system bovine; conditions: for equilibrium binding constant to microtubules (numerical analysis of displacement isotherms) / displacement of Flutax-2 / inhibition of the anisotropy of microtubule Flutax-2: 50 nM Flutax-2/50 nM microtubule sites; for equilibrium binding constant to microtubules (numerical analysis of displacement isotherms): 25° C., mean of several determinations; for equilibrium constant K, best fit of competition isotherm (FIG. 2): GAB-GDP buffer at 25° C., 50 nM Flutax-2, 50 nM sites
Method: Using Flutax-2 as a reference probe for the binding site to paclitaxel, the binding of other non-fluorescent ligands which displace Flutax-2 from the microtubules (see FIG. 1) can easily be measured by the changes in […] fluorescence properties in a competition test. The change of fluorescence anisotropy, which was analysed in 96-well plates with a microplate reader, was used. […] Baccatine III is equivalent to the taxane ring system, in which the group C-13 OH substitutes the paclitaxel side chain (see chemical structures in FIG. 2). The C-13 side chain has previously been considered as an essential determinant for recognition of paclitaxel.
Tubulin from bovine brain was purified and stored, and its concentration was measured as has been described (Andreu, J. M. et al.). Prior to its use it was balanced in 10 mM sodium phosphate, 1 mM EGTA, 0.1 mM GTP, 3.5M glycerol pH 6.8, with a Sephadex G-25 gravity column used cold, and it was centrifuged cold for 10 min at 50,000 in a TLA 100.4 rotor (Beckman) cold. The 50 μM tubulin was made 6 mM in MgCl2 (in other words, glycerol assembly buffer GAB, final pH 6.5) and 1 mM GTP, it was assembled in microtubules at 37° C. and these were gently cross-linked with 20 mM glutaraldehyde, the reaction being stopped with NaBH4 as has been described (Diaz, J. F. et al.). […] The cross-linked microtubules were dialysed against GAB-0.1 mM nucleotide (GTP or GDP) for more than 16 h, cold, in dialysis cassettes (Pierce) and were conserved frozen drop by drop in liquid nitrogen, or at 4° C. with 0.05% of sodium azide. This conservation method for the cross-linked microtubules by means of dialysis against a conservation and cryopreservation buffer is claimed in the present invention.
These competitive measurements were made with the polarisation plate reader. A solution of known concentrations of binding sites of microtubule and Flutax-2, both close to 50 nM, in GAB-GDP buffer, was freshly prepared starting from the concentrated reserves of cross-linked microtubules and Flutax-2. It was dispensed in aliquots of 200 μL (final volume) at room temperature in 96-well plates (Costar cat. No. 3599, the wells at the edges were not used). […] The ligands to test were added in small volumes of DMSO (concentration of final DMSO 2% v/v) in order to make the desired duplicated concentrations. A check was also made that the paclitaxel was not adsorbed onto the plate during the test, using ^3H-paclitaxel and a scintillation counter. The wells without protein and without Flutax-2 were included for calibration and background measurements respectively (see anisotropy measurements, above). The plates were stirred by rotation for 10 minutes and were measured twice within 30-90 minutes following balancing at 25° C. in the microplate reader. The anisotropy data of Flutax-2 was calculated with the evaluation software (BMG) and was traced against the total concentration of the competitor.
With the aim of measuring the binding affinity of a ligand (L) which displaces the reference ligand Flutax-2 from its microtubule binding site (S), unitary stoichiometry was assumed, with the fractional binding of Flutax-2 starting from the anisotropy being determined as [F]b/[S]0=[F]0(r−rmin)/[S]0(rmax−rmin) and the following expressions were applied K(F)=[SF]/[S] [F] [9] K(B)=[SB]/[S] [B] [10] [F]=[F]0−[SF] [11] [L]=[L]0−[SL] [12]

[3] = system: paclitaxel binding site of microtubules; assay: Displacement of 3H-paclitaxel from microtubules by sedimentation and scintillation count; conditions: 1 mg mL^−1 bovine serum albumin present
Description: In a series of control measurements, the displacement of the interaction of ^3H-paclitaxel with microtubules by baccatine III and Flutax-2 was evidenced by sedimentation and scintillation count. […] This confirmed that baccatine III is recognised by the paclitaxel binding site of microtubules. Nevertheless, with the aim of having the majority of the radioactive ^3H-paclitaxel tracer in solution, instead of being absorbed into the polycarbonate tube of the table-top ultracentrifuge, it was necessary to include 1 mg mL^−1 of bovine serum albumin, which binds the paclitaxel (keeping it available for interaction with the microtubules) and also the Flutax-2 (decreasing its apparent affinity). These adsorption processes make it impossible to have any direct rigorous measurement of the affinity of the binding of paclitaxel to microtubules in our hands, and therefore of the affinity of its competitors using paclitaxel as a reference ligand in these diluted tests. The additional disadvantages of the binding tests of ^3H-paclitaxel in comparison with the homogeneous test of the anisotropy of fluorescent taxoid are the operations of centrifugation, separation and radioactive measurement that are required. […]

[4] = system: cross-linked microtubules; assay: Concentration of taxoid binding sites by sedimentation and spectrophotometric measurement of Flutax-2; set-up: species or system bovine; conditions: 5 μM Flutax-2, GAB-GDP buffer, 25° C.
Method: Their concentration of total tubulin was measured after diluting them in 1% SDS using an extinction coefficient of 107,000 M^−1 cm^−1 at 275 nm (Diaz, J. F. and Andreu, J. M.). […] The concentration of binding sites of taxoid was determined by addition of growing concentrations of microtubules cross-linked to 5 μM Flutax-2 in the GAB-GDP buffer, sedimentation (Diaz, J. F. et al., 50,000 rpm in a Beckman TLA 120 rotor at 25° C.) and spectrophotometric measurement of Flutax-2. It was observed that the preparations of cross-linked microtubules bound 0.75±0.05 of Flutax-2 per total tubulin (in other words, a minimum of 95% of the bound tubulin was active binding this ligand). The control measurements using ^3H-paclitaxel and liquid scintillation gave values similar to Flutax-2. Once the anisotropy values of Flutax bound to microtubule and free were determined, the number of sites could also be determined by valuation of diluted solutions of microtubules cross-linked with Flutax-2 (see further below). The concentration of binding sites of taxoids of the preparations of cross-linked microtubules turned out to be stable in liquid nitrogen, decaying at speeds between 0.02 and 0.05 day^−1 at 4° C. (mean lives of five and two weeks respectively). The cross-linked microtubules were used within one average life starting from the preparation.

[5] = Method: Standard concentrated solutions were prepared and were kept at −20° C. in a dry atmosphere. The paclitaxel (from the National Cancer Institute, Bethesda, Md.) was measured spectroscopically at 273 nm following dilution in methanol, using an extinction coefficient of 1,700 M^−1 cm^−1 (Diaz, J. F. and Andreu, J. M.) ^3H-paclitaxel (4 Ci mmol^−1) was obtained from Moravek Biochemicals (Brea, Calif.), Docetaxel (Taxotere) was supplied by Rhône-Poulenc Rorer (Antony, France). […] The methyl ester of the C-13 side chain of paclitaxel was supplied by E. Baloglu and D. G. I. Kingston of the Virginia Polytechnic Institute (Blacksburg, Va.).

Q: For `CC(=O)O[C@H]1C(=O)[C@@]2(C)[C@H]([C@H](OC(=O)c3ccccc3)[C@]3(O)C[C@H](OC(=O)[C@H](O)[C@@H](NC(=O)c4ccccc4)c4ccccc4)C(C)=C1C3(C)C)[C@]1(OC(C)=O)CO[C@@H]1C[C@@H]2O` [paclitaxel], which “cancellation of the binding of Flutax-2 to microtubules” value ([1]; 10 μM paclitaxel) is on record?
A: entirely annulled

Q: What about the “equilibrium binding constant to microtubules (numerical analysis of displacement isotherms)” value [2] of the same molecule?
A: (3.7±1.5)×10^7 M^−1

Q: What about the “equilibrium constant K, best fit of competition isotherm (FIG. 2)” value [2] of the same molecule?
A: 3.2e+07 M⁻¹

Q: For `CC(=O)O[C@H]1C(=O)[C@]2(C)[C@@H](OC(=O)[C@H](C)NC(=O)c3ccc4c(c3)C(=O)OC43c4cc(F)c(O)cc4Oc4cc(O)c(F)cc43)C[C@H]3OC[C@@]3(OC(C)=O)[C@H]2[C@H](OC(=O)c2ccccc2)[C@]2(O)C[C@H](OC(=O)[C@H](O)[C@@H](NC(=O)c3ccccc3)c3ccccc3)C(C)=C1C2(C)C` [Flutax-2, 7-O-[N-(2,7-difluoro-4′-fluoresceincarbonyl)-L-alanyl]paclitaxel], which “equilibrium binding constant of Flutax-2 (FIG. 2 legend)” value ([1]; GAB-GDP buffer at 25° C.) is on record?
A: 1.5e+08 M⁻¹

Q: What about the equilibrium constant of the binding Kb (binding isotherm from change of anisotropy) ([1]; GAB-GDP buffer at 25° C.) of the same molecule?
A: 1.15e+08 M⁻¹

Q: And the “apparent affinity compared with fluorescence anisotropy tests” value [3]?
A: seven times lower

Q: And the “Flutax-2 bound per total tubulin” value [4]?
A: 0.75±0.05

Q: Which results are given for `CC(=O)O[C@@]12CO[C@@H]1C[C@H](O)[C@@]1(C)C(=O)[C@H](O)C3=C(C)[C@@H](OC(=O)[C@H](O)[C@@H](NC(=O)OC(C)(C)C)c4ccccc4)C[C@@](O)([C@@H](OC(=O)c4ccccc4)[C@H]21)C3(C)C` [docetaxel, Docetaxel]?
A: equilibrium binding constant to microtubules (numerical analysis of displacement isotherms) [2]: (6.0±2.3)×10^7 M^−1; equilibrium constant K, best fit of competition isotherm (FIG. 2) [2]: 8e+07 M⁻¹; ratio of affinities of docetaxel to paclitaxel ([2]; on the basis of the individual experiments): 2.7±0.3

Q: Which results are given for `COC(=O)C(O)C(NC(=O)c1ccccc1)c1ccccc1` (stereo not shown) [methyl ester of the C-13 side chain, methyl ester of the C-13 side chain of paclitaxel]?
A: displacement of Flutax-2 / inhibition of the anisotropy of microtubule Flutax-2 [2]: inactive; equilibrium binding constant to microtubules (numerical analysis of displacement isotherms) [2]: < 10^3 M^−1; K of simulated low affinity binding (line through data, FIG. 2) ([2]; simulation, data similar to controls): 700 M⁻¹; solubility [5]: ≥ 750 µM

Q: With `CC(=O)O[C@H]1C(=O)[C@@]2(C)[C@H]([C@H](OC(=O)c3ccccc3)[C@]3(O)C[C@H](O)C(C)=C1C3(C)C)[C@]1(OC(C)=O)CO[C@@H]1C[C@@H]2O` [baccatine III, Baccatine III] as the molecule, how does the “displacement of Flutax-2 / inhibition of the anisotropy of microtubule Flutax-2” value [2] read?
A: entirely inhibited

Q: What about the “equilibrium binding constant to microtubules (numerical analysis of displacement isotherms)” value [2] of the same molecule?
A: 1.5±0.5)×10^5 M^−1

Q: And the “equilibrium constant K, best fit of competition isotherm (FIG. 2)” value [2]?
A: 150000 M⁻¹

Q: And the “total concentrations needed for inhibition relative to paclitaxel” value ([2]; entire inhibition of anisotropy)?
A: approximately 200 times

Q: And the “solubility” value ([5]; pH 6.5)?
A: soluble at the concentrations used
